Experimental data: PMC6148290, “Endogenous metabolites of vitamin E limit inflammation by targeting 5-lipoxygenase” (Nature Communications, 2018)

Legend:
[1] = target: T1, human microsomal prostaglandin E2 synthase (mPGES)-1 (Homo sapiens, UniProt O14684); assay: mPGES-1 activity in microsomal preparations of IL-1β-treated A549 cells
T1 sequence (O14684 1-152): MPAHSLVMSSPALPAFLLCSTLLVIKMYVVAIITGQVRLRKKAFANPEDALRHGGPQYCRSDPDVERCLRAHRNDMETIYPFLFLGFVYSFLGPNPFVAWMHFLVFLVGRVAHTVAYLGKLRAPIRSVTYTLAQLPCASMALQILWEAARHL
Protocol: Microsomal membranes of interleukin-1β-treated A549 cells were prepared as source of mPGES-1[67]. […] Ice-cold homogenization buffer (0.1 M potassium phosphate buffer pH 7.4, 1 mM phenylmethanesulphonyl fluoride, 60 µg/ml soybean trypsin inhibitor, 1 µg/ml leupeptin, 2.5 mM glutathione, and 250 mM sucrose) was added, and cells were incubated for 15 min on ice prior to sonication (3 × 20 s, 4 °C). […] Microsomes were suspended in homogenization buffer and diluted in potassium phosphate buffer (0.1 M, pH 7.4) containing 2.5 mM glutathione. Membranes (2.5–5 µg total protein) were pre-incubated with LCMs for 15 min at 4 °C, and PGE2 formation was initiated by addition of PGH2 (20 µM, final concentration). The reaction was terminated after 1 min by addition of one volume stop solution (40 mM FeCl2, 80 mM citric acid and 1 nmol of the internal standard 11β-PGE2, Cayman Chemicals).

[2] = LCM quantitation in plasma of healthy volunteers (UPLC-MS/MS); parameters: species or system human; details: endogenous; ten healthy volunteers
Protocol: The diversity of LCMs in vivo is poorly investigated and limited to the analysis of plasma[27] and liver. To quantify vitamin E metabolites in plasma and tissues, we developed a sensitive ultraperformance liquid chromatography ESI tandem mass spectrometry (UPLC-MS/MS)-based quantitation method. […] The detection response of α-T-13′-COOH (4a) was linear between 1 and 250 nM (Fig. 2a), with lower limits of detection between 0.5 and 4 nM for ω-carboxylates and 4 and 250 nM for ω-alcohols (Supplementary Table 3).
Human PMNL, monocytes, PBMC, and platelets were freshly isolated from leukocyte concentrates. The protocols for experiments with human blood and blood cells were approved by the ethical commission of the Friedrich-Schiller-University Jena. […]
LCMs were separated on an Acquity UPLC BEH C18 column (1.7 µm, 2.1 × 50 mm, Waters) at a flow rate of 0.8 ml/min at 45 °C: 0 to 4.5 min, gradient from 50% mobile phase A (acetonitrile/water, 10/90, 0.07% formic acid)/50% mobile phase B (acetonitrile, 0.07% formic acid) to 100% B; 4.5 to 5.5 min, isocratic at 100% B. Multiple reaction monitoring was used to detect LCMs in the negative ion mode. […] Collision energies and lower limits of quantitation are listed in Supplementary Table 3.

5-LO = target: T2, 5-LO (Homo sapiens, UniProt P09917); assay: Activity of purified human recombinant 5-LO (cell-free); format: biochemical; parameters: made in house; host or cells: E. coli Bl21 (DE3)
T2 sequence (P09917 1-674): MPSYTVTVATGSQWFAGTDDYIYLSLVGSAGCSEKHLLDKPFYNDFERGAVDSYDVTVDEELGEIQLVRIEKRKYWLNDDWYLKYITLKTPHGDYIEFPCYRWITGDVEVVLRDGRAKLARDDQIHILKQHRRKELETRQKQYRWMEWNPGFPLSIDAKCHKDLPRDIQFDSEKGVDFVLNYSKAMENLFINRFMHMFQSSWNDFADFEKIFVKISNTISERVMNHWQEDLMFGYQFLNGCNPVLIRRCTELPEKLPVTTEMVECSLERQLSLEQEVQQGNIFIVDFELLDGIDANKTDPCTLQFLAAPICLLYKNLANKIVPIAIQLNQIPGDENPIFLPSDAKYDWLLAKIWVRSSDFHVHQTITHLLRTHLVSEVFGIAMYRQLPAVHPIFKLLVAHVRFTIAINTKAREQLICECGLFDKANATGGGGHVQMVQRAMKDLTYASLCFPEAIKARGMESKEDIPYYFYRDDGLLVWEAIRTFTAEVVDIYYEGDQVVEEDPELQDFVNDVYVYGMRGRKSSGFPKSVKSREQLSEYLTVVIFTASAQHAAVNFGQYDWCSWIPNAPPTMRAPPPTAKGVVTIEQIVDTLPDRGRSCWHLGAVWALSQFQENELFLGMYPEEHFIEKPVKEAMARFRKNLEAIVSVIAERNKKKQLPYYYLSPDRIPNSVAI
Protocol: E. coli Bl21 (DE3) cells were transformed with pT3–5LO plasmid to express human recombinant 5-LO, which was purified by affinity chromatography on an ATP-agarose column. In brief, E. coli was lysed in 50 mM triethanolamine/HCl pH 8.0 plus EDTA (5 mM), soybean trypsin inhibitor (60 µg/ml), phenylmethanesulphonyl fluoride (1 mM), dithiothreitol (1 mM), and lysozyme (1 mg/ml). After sonication (3 × 15 s), the homogenate was centrifuged at 10,000 × g for 15 min and the supernatant again at 40,000 × g for 70 min at 4 °C. The supernatant was applied to an ATP-agarose column (Sigma-Aldrich), and the column was washed with (i) PBS pH 7.4, 1 mM EDTA, (ii) 50 mM phosphate buffer pH 7.4, 0.5 M NaCl, 1 mM EDTA, and (iii) 50 mM phosphate buffer pH 7.4, 1 mM EDTA. 5-LO was eluted with 50 mM phosphate buffer pH 7.4, 1 mM EDTA, 20 mM ATP.
Purified 5-LO (0.5 µg) in PBS pH 7.4 containing EDTA (1 mM) and ATP (1 mM) was pre-incubated with LCMs for 10 min at 4 °C, pre-warmed for 30 s at 37 °C and 5-LO product formation was started by addition of AA (Sigma-Aldrich; 20 µM if not indicated otherwise) plus CaCl2 (2 mM). […] AA was added after incubation for 5 min on ice.

SMILES: Cc1c(C)c2c(c(C)c1O)CC[C@@](C)(CCCC(C)CCCC(C)CCCC(C)C(=O)O)O2 (stereo partly drawn) [4a, 13-((2R)-6-hydroxy-2,5,7,8-tetramethylchroman-2-yl)-2,6,10-trimethyltridecanoic acid]
- IC50 [1]: 8.8 µM
- α-T-13′-COOH (4a) concentration in human plasma [2]: 8 to 49 nM
- IC50 (5-LO): 0.27 ± 0.01 µM
